The test can be described thus: Inhibition of tubulin polymerization.

pIC50: −log10 of the molar value. Bounds are passed on as bounds.

For orientation: pIC50 means −log10 of the IC50, conventionally taken in molar units. Lower therefore signals a high IC50.

The compound `Oc1ccc2cc1-c1cc(ccc1O)CCc1c(ccc(O)c1O)Oc1cccc(c1)CC2` [DIHYDROISOPLAGIOCHIN B] had a negative-log IC50 (pIC50) below 4.00.
With `Oc1ccc2c(c1)CCc1ccc(O)c(c1)-c1cc(ccc1O)/C=C\c1cccc(c1)O2` [ISOPLAGIOCHIN A], the pIC50 was 4.30.
As to `Oc1ccc2cc1-c1cc(ccc1O)CCc1c(ccc(O)c1O)Oc1cccc(c1)/C=C\2` [ISOPLAGIOCHIN B], the Activity result was “Dose-dependent effect” and the pIC50 is 4.60.
For `CC[C@]1(O)C[C@@H]2CN(CCc3c([nH]c4ccccc34)[C@@](C(=O)OC)(c3cc4c(cc3OC)N(C)[C@H]3[C@@](O)(C(=O)OC)[C@H](OC(C)=O)[C@]5(CC)C=CCN6CC[C@]43[C@@H]65)C2)C1` [VINBLASTINE], the pIC50 is 5.70.
Still for that read-out and setting: for `Oc1ccc2c(c1)CCc1ccc(O)c(c1)-c1cc(ccc1O)CCc1cccc(c1)O2` [DIHYDROISOPLAGIOCHIN A] the value was below 4.00.
